Measurements taken from the supplement of paper PMC10307832.

Columns and labels:
Test in all cases: relative viability (nuclei count vs DMSO), 5 days (fraction); higher = more cells survive
[1] = compound: C1=CC=C(C(=C1)C2=CC=C(C=C2)C3=CSC4=C3C(=C(C(=O)N4)C#N)O)O + CC(C)C[C@H](NC(=O)[C@H](Cc1ccccc1)NC(=O)c1cnccn1)B(O)O [Bortezomib] (partner 0.002 µM)
How it was run: (§1)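 Lung cancer cell lines in 1536-well plates were dosed by pin tool the day after seeding, either with one drug alone or with a fixed anchor-drug dose plus five library-drug doses (not always all listed) in √10 steps. After 5 days, cells were fixed and their nuclei stained in one step (final 0.05% Triton X-100, 1% formaldehyde, 1 ug/ml Hoechst), then counted on 4× images. Relative viability is the nuclei count in treated wells divided by that in vehicle wells. Values are medians of duplicate plates.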

[2] = compound: O=C(CCCCCCNC(=O)c1cnc(N(c2ccccc2)c2ccccc2)nc1)NO [Ricolinostat] + O=C(CCCCCCC(=O)Nc1ccccc1)NO [Vorinostat] (partner 1 µM)
How it was run: as §1

TGX 221 + Tozasertib = compound: CC1=CN2C(=O)C=C(N=C2C(=C1)C(C)NC3=CC=CC=C3)N4CCOCC4 [TGX 221] + Cc1cc(Nc2cc(N3CCN(C)CC3)nc(Sc3ccc(NC(=O)C4CC4)cc3)n2)n[nH]1 [Tozasertib] (partner 0.1 µM)
How it was run: as §1

[3] = compound: C1=CC=C(C(=C1)C2=CC=C(C=C2)C3=CSC4=C3C(=C(C(=O)N4)C#N)O)O + COc1cc2c(Oc3ccc(NC(=O)C4(C(=O)Nc5ccc(F)cc5)CC4)cc3F)ccnc2cc1OCCCN1CCOCC1 [Foretinib] (partner 0.25 µM)
How it was run: as §1

Row | Cell Line | relative viability ([1]; first compound 0.08 µM) | relative viability ([1]; first compound 0.253 µM) | relative viability ([1]; first compound 0.8 µM) | relative viability ([1]; first compound 2.53 µM) | relative viability ([1]; first compound 8 µM) | relative viability ([2]; first compound 0.08 µM) | relative viability ([2]; first compound 0.253 µM) | relative viability ([2]; first compound 0.8 µM) | relative viability ([2]; first compound 2.53 µM) | relative viability (TGX 221 + Tozasertib; first compound 0.08 µM) | relative viability (TGX 221 + Tozasertib; first compound 0.253 µM) | relative viability (TGX 221 + Tozasertib; first compound 0.8 µM) | relative viability (TGX 221 + Tozasertib; first compound 2.53 µM) | relative viability (TGX 221 + Tozasertib; first compound 8 µM) | relative viability ([3]; first compound 0.08 µM) | relative viability ([3]; first compound 0.253 µM) | relative viability ([3]; first compound 0.8 µM) | relative viability ([3]; first compound 2.53 µM) | relative viability ([3]; first compound 8 µM)
1 | NCI-H2228 | 0.973 | 0.922 | 1.07 | 0.959 | 0.73 | 0.896 | 0.647 | 0.605 | 0.64 | 0.251 | 0.262 | 0.261 | 0.215 | 0.167 | 0.764 | 0.871 | 0.96 | 0.847 | 0.588
2 | NCI-H2347 | 0.913 | 1.24 | 1.23 | 1.02 | 0.869 | 0.449 | 0.567 | 0.55 | 0.469 | 0.514 | 0.418 | 0.538 | 0.422 | 0.33 | 0.845 | 0.923 | 0.951 | 1.01 | 0.735
3 | NCI-H2405 | 1.02 | 0.991 | 0.977 | 0.954 | 0.988 | 0.854 | 1.02 | 0.379 | 0.767 | 0.737 | 0.771 | 0.693 | 0.745 | 0.697 | 1.05 | 1.04 | 1.01 | 1.01 | 0.983
4 | NCI-H3122 | 1.02 | 1.06 | 1.06 | 0.993 | 1.11 | 0.966 | 0.848 | 0.853 | 0.708 | 0.368 | 0.402 | 0.372 | 0.34 | 0.379 | 0.954 | 1.05 | 1.01 | 1.06 | 0.978
5 | PC-3 [JPC-3] | 0.762 | 0.817 | 0.758 | 0.95 | 0.899 | 0.505 | 0.854 | 0.448 | 0.669 | 0.822 | 0.913 | 0.838 | 0.856 | 0.833 | 1.05 | 1.01 | 1.02 | 1.05 | 0.995
6 | PC-14 | 0.801 | 0.81 | 0.812 | 1.07 | 0.88 | 0.576 | 0.691 | 0.593 | 0.396 | 0.619 | 0.615 | 0.631 | 0.589 | 0.459 | 0.887 | 1.24 | 0.911 | 1.03 | 0.826
7 | RERF-LC-KJ | 0.995 | 1.1 | 1.22 | 1.1 | 1.05 | 0.583 | 0.657 | 0.639 | 0.434 | 0.465 | 0.555 | 0.496 | 0.488 | 0.382 | 0.917 | 0.996 | 0.902 | 0.914 | 0.778
8 | SK-LU-1 | – | 0.83 | 1.12 | 1.36 | 1.16 | 0.669 | 0.613 | 0.731 | 0.607 | 0.346 | 0.356 | 0.321 | 0.343 | 0.308 | 0.886 | 0.733 | 0.871 | 0.947 | 0.734
9 | SW 1573 | 0.823 | 1.02 | 1.12 | 1.04 | 0.88 | 0.554 | 0.667 | 0.751 | 0.49 | 0.175 | 0.208 | 0.211 | 0.165 | 0.207 | 0.836 | 0.864 | 0.884 | 0.916 | 0.837
10 | UMC-11 | 0.519 | 0.742 | 0.56 | 0.8 | 0.487 | 0.389 | 0.377 | 0.265 | 0.187 | 0.183 | 0.195 | 0.204 | 0.203 | 0.194 | 0.809 | 0.855 | 1.15 | 1.19 | 0.858
